Measured values: patent US12171793B2, “Method of activating lactic acid bacteria” (INFANT BACTERIAL THERAPEUTICS AB, priority 2015, dated 2024)
Entries after “also recorded” stand apart in the source; their conditions may differ.

Experiments:
[1] = test system: Lactobacillus reuteri DSM 17938; assay: Growth of Lactobacillus reuteri in simulated intestinal substrate (SIS); type: cell-based; settings: FIG. 1; GOS or glucose plus electron acceptor, 15 mM of each; 16 h at 37° C., anaerobic
Method: The growth of L. reuteri DSM 17938 on different combinations of sugar and electron acceptors was evaluated in “Simulated intestinal substrate” (SIS). [table] Lactobacillus reuteri cells of strain DSM 17938 were first grown over night in MRS broth (Oxoid) at 37° C. After washing in phosphate-buffered saline (PBS) the bacteria were diluted 10 × in PBS. 10 μl of bacterial suspension was thereafter inoculated to 10 ml SIS (with addition of sugar and electron acceptor), and the bacteria were cultivated for 16 h at 37° C. during anaerobic conditions and no shaking. The growth of Lactobacillus reuteri DSM 17938 in SIS with lactose and citrate as the sugar-electron acceptor pair is evaluated in the same way as described above for GOS and citrate as the electron acceptor. The above described substrate (SIS) is used.

[2] = test system: Lactobacillus reuteri DSM 17938; assay: Evaluation of activation time by turbidity (BioScreen) in simulated intestinal medium STMmod 3; type: cell-based; settings: STMmod 3, 37° C., OD 600 nm; with citrate compared to without citrate; FIG. 3
Method: The activation time in simulated intestinal medium (STMmod 3, see Table 4) of the two variants of lyophilized DSM 17938 (C and N) were analyzed using a computer-controlled incubator/reader/shaker (BioScreen C MBR) that measure the change in turbidity over time. The medium STMmod 3 was used to mimic the conditions in the intestine. To each well 200 μl of STMmod 3 was added. Thereafter different volumes (100, 60, 40, 30, 25 μl) of bacterial suspension (vials with lyophilized bacteria suspended in 1 ml dH2O) were added. Volumes were adjusted to 300 μl with dH2O. The analysis of each inoculation volume was done in triplicates. The BioScreen analysis was run at 37° C. for 24 hours with a 15 min interval between measurements (OD 600 nm), with the addition of a 10 s shaking step before each measuring point. [table]

O=C(O)CC(O)(CC(=O)O)C(=O)O [Citrate]
growth of Lactobacillus reuteri DSM 17938 in simulated intestinal substrate [1]: highest effect | time to reach a 3% increase in OD (activation time) [2]: shorter time; also recorded: shorten the activation time
